# Source: patent US20150125407A1, “Vesicular Formulations, Uses and Methods” (Sequessome Technology Holdings Ltd, priority 2012, published 2015)
# Test system: acne vulgaris
# Test: Use example 1: topical roaccutane alone or layered with Rossoseq gel in teenage acne vulgaris
# Conditions: topically applied roaccutane alone; person
smiles,measurement,value
CC1=C(/C=C/C(C)=C/C=C/C(C)=C\C(=O)O)C(C)(C)CCC1 [roaccutane],effect on acne vulgaris,did not have a significant effect
